Reference: ChEMBL document CHEMBL1136068 (Bioorg Med Chem Lett, 2003)
Values belong to the compound of their own block, whether it stands above or below them. Activity calls are given as the source filed them. The calls are words filed in the database; no cut-off is given here.

Assays:
Androgen receptor [1] = biological target: T1, Androgen receptor (Homo sapiens, UniProt P10275); experiment: Antagonist activity against Androgen receptor; not active; type: functional
T1 sequence (P10275 whole entry): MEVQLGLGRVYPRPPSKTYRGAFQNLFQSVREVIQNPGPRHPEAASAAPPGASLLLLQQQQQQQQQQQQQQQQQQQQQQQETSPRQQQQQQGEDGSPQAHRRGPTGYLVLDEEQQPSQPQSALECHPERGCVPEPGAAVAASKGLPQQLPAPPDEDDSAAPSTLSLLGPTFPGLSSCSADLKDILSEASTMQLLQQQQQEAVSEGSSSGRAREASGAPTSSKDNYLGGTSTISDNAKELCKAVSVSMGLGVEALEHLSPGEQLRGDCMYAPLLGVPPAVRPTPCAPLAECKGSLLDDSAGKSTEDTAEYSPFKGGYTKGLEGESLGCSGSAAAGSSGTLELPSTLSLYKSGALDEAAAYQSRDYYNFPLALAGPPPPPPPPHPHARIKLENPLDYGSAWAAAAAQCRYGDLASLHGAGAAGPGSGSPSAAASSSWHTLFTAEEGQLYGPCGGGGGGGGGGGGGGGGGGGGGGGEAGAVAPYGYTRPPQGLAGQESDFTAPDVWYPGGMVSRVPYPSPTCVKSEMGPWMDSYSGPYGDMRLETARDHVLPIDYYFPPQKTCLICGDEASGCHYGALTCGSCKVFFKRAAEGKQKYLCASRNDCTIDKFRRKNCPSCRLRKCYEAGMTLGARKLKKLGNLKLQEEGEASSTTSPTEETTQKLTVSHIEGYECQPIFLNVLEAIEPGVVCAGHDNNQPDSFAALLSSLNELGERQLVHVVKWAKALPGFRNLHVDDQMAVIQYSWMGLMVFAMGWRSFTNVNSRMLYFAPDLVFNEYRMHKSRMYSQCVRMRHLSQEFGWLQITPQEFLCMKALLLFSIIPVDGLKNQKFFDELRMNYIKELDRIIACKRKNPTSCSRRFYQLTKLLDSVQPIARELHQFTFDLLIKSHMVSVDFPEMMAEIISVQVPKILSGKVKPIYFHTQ

Glucocorticoid receptor [2] = biological target: T2, Glucocorticoid receptor (Homo sapiens, UniProt P04150); experiment: Antagonist activity at glucocorticoid (hGR) receptor; type: functional
T2 sequence (P04150 whole entry): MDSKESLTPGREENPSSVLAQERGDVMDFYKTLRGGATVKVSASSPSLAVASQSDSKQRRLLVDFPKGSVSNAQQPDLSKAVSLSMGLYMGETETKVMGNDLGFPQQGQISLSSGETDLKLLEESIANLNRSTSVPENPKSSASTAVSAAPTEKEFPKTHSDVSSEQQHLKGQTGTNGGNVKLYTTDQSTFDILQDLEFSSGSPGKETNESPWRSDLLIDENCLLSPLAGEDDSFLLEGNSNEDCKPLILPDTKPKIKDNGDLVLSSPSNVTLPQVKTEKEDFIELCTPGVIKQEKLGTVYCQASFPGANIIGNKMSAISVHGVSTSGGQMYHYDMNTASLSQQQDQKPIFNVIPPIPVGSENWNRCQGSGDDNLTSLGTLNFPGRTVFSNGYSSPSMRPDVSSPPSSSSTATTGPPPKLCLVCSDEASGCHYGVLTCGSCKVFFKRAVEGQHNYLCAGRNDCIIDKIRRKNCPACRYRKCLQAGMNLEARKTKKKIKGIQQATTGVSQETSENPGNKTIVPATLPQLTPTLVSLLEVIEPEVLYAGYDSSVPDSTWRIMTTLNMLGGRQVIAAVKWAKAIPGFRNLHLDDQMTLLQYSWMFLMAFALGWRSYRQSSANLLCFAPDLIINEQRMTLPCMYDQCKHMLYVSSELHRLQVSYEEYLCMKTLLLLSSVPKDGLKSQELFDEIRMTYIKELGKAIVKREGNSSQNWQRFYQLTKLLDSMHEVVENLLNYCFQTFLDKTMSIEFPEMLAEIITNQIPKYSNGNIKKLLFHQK

Androgen receptor [3] = biological target: T1, Androgen receptor
Androgen receptor [4] = biological target: T1, Androgen receptor; experiment: Antagonist activity against human Androgen receptor; type: functional
Glucocorticoid receptor [5] = biological target: T2, Glucocorticoid receptor; experiment: Antagonist activity at glucocorticoid receptor; type: functional
Estrogen receptor [6] = biological target: T3, Estrogen receptor (Homo sapiens, UniProt Q92731+P03372); experiment: Antagonist efficacy with Estrogen receptor; Efficacy <20% and/or potency >[…] nM; type: functional
Estrogen receptor [7] = biological target: T3, Estrogen receptor; experiment: Antagonist activity at estrogen (hER) receptor; Efficacy <20% and/or potency >[…] nM; type: functional
[8] = biological target: T4, Mineralocorticoid receptor (Homo sapiens) (UniProt P08235); experiment: Antagonist activity at mineralocorticoid receptor (hMR); Efficacy <20% and/or potency >[…] nM; type: functional
T4 sequence (whole entry): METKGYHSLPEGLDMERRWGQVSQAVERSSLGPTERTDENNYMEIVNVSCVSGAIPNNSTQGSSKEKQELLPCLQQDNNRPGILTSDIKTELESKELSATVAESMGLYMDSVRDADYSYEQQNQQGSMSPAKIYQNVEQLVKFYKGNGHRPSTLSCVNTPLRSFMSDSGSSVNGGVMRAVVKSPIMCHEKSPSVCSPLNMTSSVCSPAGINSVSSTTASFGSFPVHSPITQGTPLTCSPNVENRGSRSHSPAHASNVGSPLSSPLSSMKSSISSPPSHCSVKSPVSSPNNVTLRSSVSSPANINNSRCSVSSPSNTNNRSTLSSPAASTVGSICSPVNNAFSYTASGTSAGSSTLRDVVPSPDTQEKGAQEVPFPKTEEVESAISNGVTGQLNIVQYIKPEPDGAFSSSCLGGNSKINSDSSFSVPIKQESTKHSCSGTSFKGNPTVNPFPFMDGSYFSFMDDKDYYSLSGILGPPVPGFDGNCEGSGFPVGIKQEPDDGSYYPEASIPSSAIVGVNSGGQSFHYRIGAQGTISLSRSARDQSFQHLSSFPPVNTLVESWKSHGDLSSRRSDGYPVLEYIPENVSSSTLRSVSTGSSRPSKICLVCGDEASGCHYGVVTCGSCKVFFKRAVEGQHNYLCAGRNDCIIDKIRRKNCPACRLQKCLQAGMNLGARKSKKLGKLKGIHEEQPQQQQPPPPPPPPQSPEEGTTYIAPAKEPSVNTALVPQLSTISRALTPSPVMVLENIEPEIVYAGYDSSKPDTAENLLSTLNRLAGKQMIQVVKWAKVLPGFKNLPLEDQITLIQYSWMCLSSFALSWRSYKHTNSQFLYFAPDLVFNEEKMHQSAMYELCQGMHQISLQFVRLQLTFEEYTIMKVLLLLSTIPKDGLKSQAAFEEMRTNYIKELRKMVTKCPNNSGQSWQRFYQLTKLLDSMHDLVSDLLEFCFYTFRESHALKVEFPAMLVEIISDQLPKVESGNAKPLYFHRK

[9] = biological target: T4, Mineralocorticoid receptor (Homo sapiens); experiment: Antagonist efficacy at mineralocorticoid receptor (hMR); Efficacy <20% and/or potency >[…] nM; type: functional
Glucocorticoid receptor [10] = biological target: T2, Glucocorticoid receptor

- IC50 (Androgen receptor [1]): > 1000 nM
- IC50 (Glucocorticoid receptor [2]): 177 nM
Structure (SMILES): CC(C)=C/C=C1\Oc2ccc(F)cc2-c2ccc3c(c21)C(C)=CC(C)(C)N3

- IC50 (Glucocorticoid receptor [2]): 10 nM
- IC50 (Androgen receptor [3]): 6.1 nM
Structure (SMILES): CC(=O)C[C@]1(C(C)=O)CC[C@H]2C3C[C@H](C)C4=CC(=O)CC[C@]4(C)[C@H]3CC[C@@]21C (some centres not stated)

- IC50 (Androgen receptor [4]): 250 nM
- IC50 (Glucocorticoid receptor [5]): 324 nM
- Efficacy (Estrogen receptor [6]): inactive
- Efficacy (Estrogen receptor [7]): inactive
- Efficacy [8]: inactive
- Efficacy [9]: inactive
Structure (SMILES): CC/C(C)=C1\Oc2ccc(F)cc2-c2ccc3c(c21)C(C)=CC(C)(C)N3

Structure (SMILES): CC1=CC(C)(C)Nc2ccc3c(c21)/C(=C/Br)Oc1ccc(F)cc1-3
- IC50 (Androgen receptor [3]): 250 nM
- IC50 (Glucocorticoid receptor [10]): > 1000 nM
